Results published in patent publication US7700584B2 (Hangzhou Minsheng Pharmaceuticals Co., Ltd., priority 2004, dated 2010).
Like-named read-outs stand apart in the source and are kept apart here.

How the values were obtained:
[1] = test system: U-937 human histocytic lymphoma; test: In vitro inhibition rate to tumor cells (MTT), U-937; format: cell-based; settings: for inhibition at 50 µg/mL: Homo sapiens, U-937, 50 μg/ml, read-out: inhibition rate, Results (%) U-937; for inhibition rate, Results (%) U-937: 50 μg/ml
[2] = test system: A-549 human lung adenocarcinoma; test: In vitro inhibition rate to tumor cells (MTT), A-549; format: cell-based; settings: for inhibition rate, Results (%) A-549: 50 μg/ml
[3] = test system: Bel-7402 human hepatic carcinoma; test: In vitro inhibition rate to tumor cells (MTT), Bel-7402; format: cell-based; settings: for inhibition rate, Results (%) Bel-7402: 50 μg/ml
[4] = test system: SMMC-7721 human hepatic carcinoma; test: In vitro inhibition rate to tumor cells (MTT), SMMC-7721; format: cell-based; settings: 50 μg/ml
[5] = test system: HL-60 human promyelocytic leukemia; test: In vitro inhibition rate to tumor cells (MTT), HL-60; format: cell-based; settings: for inhibition at 50 µg/mL: Homo sapiens, HL-60, 50 μg/ml, read-out: inhibition rate, Results (%) HL-60; for inhibition rate, Results (%) HL-60: 50 μg/ml
[6] = test system: Hela human cervical carcinoma; test: In vitro inhibition rate to tumor cells (MTT), Hela; format: cell-based; settings: 50 μg/ml; for inhibition at 50 µg/mL: Homo sapiens, HeLa, read-out: inhibition rate, Results (%) Hela
[7] = test system: LLC mouse Lewis lung carcinoma; test: In vitro inhibition rate to tumor cells (MTT), LLC; format: cell-based; settings: 50 μg/ml
[8] = test system: Hela human cervical carcinoma; test: In vitro anti-tumor IC50 (MTT), Hela; format: cell-based; settings: Homo sapiens, HeLa; Table 4; read-out: IC50 (ug/ml) against tumor cell lines, Hela
[9] = test system: U-937 human histocytic lymphoma; test: In vitro anti-tumor IC50 (MTT), U-937; format: cell-based; settings: Homo sapiens, U-937; Table 4; read-out: IC50 (ug/ml) against tumor cell lines, U-937
[10] = test system: MCF-7 human mammary adenocarcinoma; test: In vitro anti-tumor IC50 (MTT), MCF-7; format: cell-based; settings: Homo sapiens, MCF7; Table 4; read-out: IC50 (ug/ml) against tumor cell lines, MCF
Protocol: (§1) (1) Single cell suspension was seeded into 96-well plates (the cells was diluted in the PRMI-1640 minimum medium to 3×10^4 cells/ml, […] diluted cells/well). […] The experiments were performed in quadruplicate.
(§2) (2) The medium was removed. Solutions of the anti-tumor agents (50 compounds) were prepared in a freshly prepared medium at serial concentrations. […] of the solution was added into each well. Incubation was continued for 48 hours.
(§3) (3) 20 ug of 2 mg/ml MTT was added into each well, and incubated for 4 hours.
(§4) (4) The medium was removed from the well. The microplates were swiftly turned down to throw-off the medium. […] of DMSO was added into each well, and vortexed at room temperature for 10 minutes.
(§5) (5) OD value (λ=570 nm) was measured with an Enzyme-Linked Detector.
(§6) (6) The graph of cell vitality was plotted, and IC50 was calculated.

[11] = test system: HL-60 human promyelocytic leukemia; test: In vitro anti-tumor IC50 (MTT), HL-60; format: cell-based; settings: Homo sapiens, HL-60; Table 4; read-out: IC50 (ug/ml) against tumor cell lines, HL-60
Protocol: as §1, §2, §3, §4, §5, §6

[12] = target: T1, HIV-1 proteinase (HIV-1 PR) (Human immunodeficiency virus type 1 group M subtype B, UniProt P04585); test: Screening for in vitro activity against HIV-1 proteinase; format: biochemical; settings: for IC50: IC50, five 5× serial dilutions from 50 μg/ml
T1 construct: HIV-1 proteinase digests the fluorescent-labeled substrate; purchased
How it was run: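 Inhibition was scored from product fluorescence after the enzyme was added to buffer holding the labeled substrate and the test sample. Samples were five serial 5× dilutions in water from a DMSO solution. Indinavir served as the reference control; the enzyme was recombinant HIV-1 PR.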

[13] = target: T2, HIV-1 reverse transcriptase (Human immunodeficiency virus type 1 group M subtype B, UniProt P04585); test: Screening for the in vitro activity against the HIV-1 reverse transcriptase; format: biochemical; settings: IC50, initial concentration 200 μg/ml
T2 construct: purchased
How it was run: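 Each sample, taken from DMSO through five 5-fold water dilutions, was incubated with recombinant RT and Biotin-dUTP substrate. Enzyme activity was quantified as biotin label incorporated into the plate-bound template, using streptavidin-HRP with absorbance at 450 nm.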

[14] = test system: 293 cells; test: Cell status of 293 cells treated with sample alone (herpes virus screening); settings: for Cytopathy and cell status, Sample: 24 hrs

## C=C1CC2(OS(=O)(=O)O)OC3(CC2C(C)C)C(C)CCC13 (centres unmarked) [Compound 20, Curcumol sulfonate]
[1]; Table 1
  inhibition at 50 µg/mL: 89.2%
[1]; Table 2 (repeated screening)
  inhibition at 50 µg/mL: 90.3%
[1]; Table 3 (repeated screening)
  inhibition at 50 µg/mL: 90%
[2]; Table 1
  inhibition rate, Results (%) A-549: 12.50%
[2]; Table 3 (repeated screening)
  inhibition rate, Results (%) A-549: 14.32%
[2]; Homo sapiens, A549, 50 μg/ml, Table 2 (repeated screening), read-out: inhibition rate, Results (%) A-549
  inhibition at 50 µg/mL: 13%
[3]; Table 2 (repeated screening)
  inhibition rate, Results (%) Bel-7402: 5.36%
[3]; Table 3 (repeated screening)
  inhibition rate, Results (%) Bel-7402: 1.23%
[3]; Homo sapiens, Bel-7402, 50 μg/ml, Table 1, read-out: inhibition rate, Results (%) Bel-7402
  inhibition at 50 µg/mL: 7.89%
[4]; Table 1
  inhibition rate, Results (%) SMMC-7721: 18.08%
[4]; Table 2 (repeated screening)
  inhibition rate, Results (%) SMMC-7721: 1.23%
[4]; Table 3 (repeated screening)
  inhibition rate, Results (%) SMMC-7721: 6.56%
[5]; Table 1
  inhibition at 50 µg/mL: 91.3%
[5]; Table 2 (repeated screening)
  inhibition at 50 µg/mL: 92.4%
[5]; Table 3 (repeated screening)
  inhibition at 50 µg/mL: 91.7%
[6]; Table 1
  inhibition at 50 µg/mL: 94.2%
[6]; Table 2 (repeated screening)
  inhibition at 50 µg/mL: 90.6%
[6]; Table 3 (repeated screening)
  inhibition at 50 µg/mL: 92.5%
[7]; Table 2 (repeated screening)
  inhibition rate, Results (%) LLC: 9.37%
[7]; Table 3 (repeated screening)
  inhibition rate, Results (%) LLC: 15.32%
[7]; Mus musculus, Lewis lung carcinoma, Table 1
  inhibition at 50 µg/mL: 8.97%
[8]
  IC50: 0.89 µg/mL
[9]
  IC50: 0.95 µg/mL
[10]
  IC50: 4.98 µg/mL
[11]
  IC50: 0.45 µg/mL
[12]; 0.08 μg/ml, read-out: Inhibition rate
  inhibition at 0.08 µg/mL: 8.76%
[12]; 0.40 μg/ml, read-out: Inhibition rate
  inhibition at 0.4 µg/mL: 7.44%
[12]; 2.0 μg/ml, read-out: Inhibition rate
  inhibition at 2 µg/mL: 10.6%
[12]; 10 μg/ml, read-out: Inhibition rate
  inhibition at 10 µg/mL: 9.46%
[12]; 50 μg/ml
  Inhibition rate: 12.68
[12]
  IC50: > 158 µM
[13]
  IC50: > 632 µM
[14]; 200 μg/ml
  Cytopathy and cell status, Sample: Good

## C=C1CC2(OS(=O)(=O)[O-])OC3(CC2C(C)C)C(C)CCC13.[Na+] (centres unmarked) [Compound 21, Curcumol sodium sulfonate]
[1]; Table 1
  inhibition rate, Results (%) U-937: 92.04%
[1]; Table 2 (repeated screening)
  inhibition rate, Results (%) U-937: 89.46%
[1]; Table 3 (repeated screening)
  inhibition rate, Results (%) U-937: 91.45%
[2]; Table 1
  inhibition rate, Results (%) A-549: 26.42%
[2]; Table 2 (repeated screening)
  inhibition rate, Results (%) A-549: 20.01%
[2]; Table 3 (repeated screening)
  inhibition rate, Results (%) A-549: 1.23%
[3]; Table 1
  inhibition rate, Results (%) Bel-7402: 5.36%
[3]; Table 2 (repeated screening)
  inhibition rate, Results (%) Bel-7402: 2.13%
[3]; Table 3 (repeated screening)
  inhibition rate, Results (%) Bel-7402: 3.12%
[4]; Table 1
  inhibition rate, Results (%) SMMC-7721: −7.26%
[4]; Table 2 (repeated screening)
  inhibition rate, Results (%) SMMC-7721: −1.82%
[4]; Table 3 (repeated screening)
  inhibition rate, Results (%) SMMC-7721: −2.93%
[5]; Table 1
  inhibition rate, Results (%) HL-60: 93.12%
[5]; Table 2 (repeated screening)
  inhibition rate, Results (%) HL-60: 90.89%
[5]; Table 3 (repeated screening)
  inhibition rate, Results (%) HL-60: 89.79%
[6]; Table 1
  inhibition rate, Results (%) Hela: 91.69%
[6]; Table 2 (repeated screening)
  inhibition rate, Results (%) Hela: 90.11%
[6]; Table 3 (repeated screening)
  inhibition rate, Results (%) Hela: 91.67%
[7]; Table 1
  inhibition rate, Results (%) LLC: 10.47%
[7]; Table 2 (repeated screening)
  inhibition rate, Results (%) LLC: 1.89%
[7]; Table 3 (repeated screening)
  inhibition rate, Results (%) LLC: 7.58%
[8]
  IC50: 0.75 µg/mL
[9]
  IC50: 0.89 µg/mL
[10]
  IC50: 4.99 µg/mL
[11]
  IC50: 1.3 µg/mL
[12]; 0.08 μg/ml
  Inhibition rate: 8.74
[12]; 0.40 μg/ml
  Inhibition rate: 14.77
[12]; 2.0 μg/ml
  Inhibition rate: 5.86
[12]; 10 μg/ml
  Inhibition rate: 10.16
[12]; 50 μg/ml
  Inhibition rate: 5.47
[12]
  IC50: > 148 µM
[13]
  IC50: > 591 µM
[14]; 12.5 μg/ml
  cell status of 12 and 24 h: Good
[14]; 25 μg/ml
  cell status of 12 and 24 h: Good
[14]; 50 μg/ml
  cell status of 12 and 24 h: Good
[14]; 100 μg/ml
  cell status of 12 and 24 h: Good
[14]; 200 μg/ml
  cell status of 12 and 24 h: Normal
  Cytopathy and cell status, Sample: Normal
